Laboratory results taken from US20250177371A1, “CFTR MODULATORS FOR THE TREATMENT OF VASCULAR DISEASE” (priority 2022, published 2025).
Entries after “also recorded” stand apart in the source; their conditions may differ.

Tests used:
[1] = system: platelets isolated from blood of healthy donors; experiment: Flow cytometry of surface expression of activation markers CD62p and CD63 on platelets; type: cell-based, human; conditions: platelets pre-treated 24 h with 10 µM ivacaftor or 5 µM forskolin prior to 50 µM ADP, 50 µM TRAP6 or 5 µM PAF
Protocol: Flow Cytometry: Blood samples were collected and stained as previously described3. In brief, blood was directly stained in dilution buffer (NaCl 137 mM, KCl 2.7 mM, MgCl2 1 mM, 4-(2-hydroxyethyl)-1-piperazineethanesulfonic acid (HEPES) 20 mM, glucose 5.6 mM, bovine serum albumin 1 g/l, pH 7.4.) containing mouse anti-human anti-CD42b (GPlb) Phycoerythrin (PE, clone HIP1), anti-CD62p (P-selectin) Phycoerythrin-Cyanine 7 (PE/Cy7, clone AK4), anti-CD63 (GP53) and Brilliant Violet 421 (clone H5C6), all from BioLegend (San Diego, CA, USA), before cells were fixed with 2 mL of 0.2% PFA in PBS. In order to analyze isolated platelets, total citrate blood was centrifuged at 150 g for 15 min to separate platelet rich plasma (PRP) from blood cells. PRP was collected and centrifuged again at 1000 g for 15 min. Platelets were subsequently resuspended in 10% CPDA buffer in PBS (Sigma-Aldrich (St. Louis, MO, USA)) and incubated for 24 h in the presence of either vehicle (DMSO, Sigma-Aldrich (St. Louis, MO, USA)), 10 µM ivacaftor (Cayman Chemicals, Ann Arbor, MI, USA)) or 5 µM forskolin (Fisher Scientific (Pittsburgh, PA, USA)) before staining was applied as described above. […] All measurements were analyzed with FlowJo (version 8, Tree Star, Inc., Ashland, OR, USA).

[2] = system: platelets in whole blood of COVID-19 patients and healthy donors; experiment: Vascular Injury Flow Assay (platelet adhesion on collagen IV); type: cell-based, human
Protocol: Vascular Injury Flow Assay: Citrated blood was stained with anti-CD42b ((GPlb) Allophycocyanin (APC, clone REA 185, Miltenyi Biotec, Bergisch Gladbach, Germany)) and treated with either vehicle (DMSO), 10 μM ivacaftor or 5 µM forskolin for 15 min at 37° C. before the microfluidic flow assay was performed as previously described2. In brief, pretreated whole blood was diluted 1:4 with modified Tyrode's Buffer (134 mM NaCl, 12 mM NaHCO3, 2.90 mM KCl, 0.34 mM Na2HPO4, 3 mM MgCl2, 2.1 mM CaCl2), 20 mM HEPES, 5 mM Glucose, 1 g/l BSA, adjusted to a pH of 7.4.) immediately before perfusion with a flow rate of 20 mL/h for 5 min through collagen IV coated microchannel flow chambers (6 Channel μ-Slide VI 0.4, Ibidi, Martinsried, Germany). After perfusion, cells were fixed with 4% PFA for 30 min and washed thoroughly with PBS. Five randomly selected regions of interest (ROI) for each experimental condition were imaged with an Invitrogen™ EVOS™ fluorescent microscope and quantification of the total CD42b+ covered area was carried out with ImageJ (Version […] by the US National Institutes of Health and the LOCI, University of Wisconsin).

[3] = system: platelets from COVID-19 patients and healthy donors (hirudin whole blood); experiment: Multiple Electrode Aggregometry (Multiplate analyzer); type: cell-based, human; conditions: 10 µM ivacaftor 15 min, ADP, TRAP6 or PAF, significance only for individual agonist-platelet combinations
Protocol: Multiple Electrode Aggregometry: Whole blood impedance measurement using Multiple Electrode Aggregometry (MEA) was performed on the Multiplate® analyzer by Roche (Basel, Switzerland)). Hirudin whole blood samples were treated with either vehicle (DMSO), 10 µM ivacaftor or 5 μM forskolin for 15 min at 37° C.

[4] = system: platelets of healthy donors or severe COVID-19 patients; experiment: Analysis of Ca2+ transients (Indo-1 AM, FACS); type: cell-based, human; conditions: 10 µM ivacaftor pretreatment; ADP, TRAP6 or PAF; healthy donors and severe COVID-19; except TRAP6 stimulated healthy platelets
Protocol: Analysis of Ca2+ transients: Platelet rich plasma (PRP) was stained with anti-CD42b, and loaded with Indo-1 AM (Invitrogen, Waltham, MA, USA)) for 30 min at 37° C. together in the presence of either vehicle (DMSO, 10 µM ivacaftor or 5 µM forskolin) under mild agitation. Stained PRP was diluted in Tyrode's Buffer (134 mM NaCl, 12 mM NaHCO3, 2.90 mM KCl, 0.34 mM Na2HPO4, 3 mM MgCl2, 2 mM CaCI2, 20 mM HEPES, 5 mM Glucose, pH 7.4.) complemented with heparin and […] before the fluorescence ratio of Ca2+-bound Indo-1 (405 nm) to Ca2+-unbound Indo-1 (530 nm) of CD42b+ platelets was monitored on a FACSymphony™ A5 (BD Biosciences, Franklin Lakes, NJ, USA) equipped with a ultraviolet (355 nm), violet (405 nm), blue (488 nm), yellow (561 nm), and red (637 nm) solid-state laser. After basal Ca2+ concentrations were monitored for 30 s, platelets were stimulated with either 5 μM PAF (Tocris Bioscience (Bristol, England, GB)), 50 μM ADP (Sigma-Aldrich, St. Louis, MO, USA) or 50 μM TRAP-6 (purchased from Cayman Chemicals (Ann Arbor, MI, USA)) before changes in intracellular Ca2+ concentration ([Ca2+] i) were monitored for additional 2 min. Results are expressed in arbitrary units as areaunder the curve (AUC).

COVID-19 patients = conditions: treatment of COVID-19; cited from earlier work

SMILES | agonist-induced upregulation of CD62p and CD63 (platelet activation) [1] | agonist-induced platelet adhesion (CD42b+ total area) ([2]; 10 μM ivacaftor 15 min, ADP, TRAP-6 or PAF, significance for most agonist-platelet combinations) | adhesion of both unstimulated and stimulated platelets ([2]; whole blood of severe COVID-19 patients) | agonist-induced aggregation of platelets (AUC) [3] | agonist-induced aggregation of platelets (AUC) ([3]; listed as Ivacaftor) | agonist-induced [Ca2+]i increase (AUC) [4] | reduction in thromboembolic events (COVID-19 patients)
CC(C)(C)c1cc(C(C)(C)C)c(NC(=O)c2c[nH]c3ccccc3c2=O)cc1O [ivacaftor, N-(5-hydroxy-15 2,4-ditert-butyl-phenyl)-4-oxo-1 H-quinoline-3-carboxamide] | prevented; also recorded: attenuates; also recorded: normalized | reduces; also recorded: general trend to reduce; also recorded: attenuates | reduced | reduces; also recorded: general trend to reduce; also recorded: attenuates | significantly attenuates | attenuates; also recorded: significant reduction; also recorded: significantly attenuated | 
COc1ccc(-n2nc(C(N)=O)c3c2C(=O)N(c2ccc(N4CCCCC4=O)cc2)CC3)cc1 [apixaban] |  |  |  |  |  |  | failed to yield a significant reduction
CC(=O)Oc1ccccc1C(=O)O [aspirin] |  |  |  |  |  |  | failed to yield a significant reduction; also recorded: failed to show a significant reduction
